Experimental data published in patent US20230219925A1, “BENZO FIVE-MEMBERED NITROGEN HETEROCYCLIC COMPOUND AND APPLICATION THEREOF” (GUANGZHOU INSTITUTES OF BIOMEDICINE AND HEALTH CHINESE …, priority 2020, published 2023).
Read-outs that look alike come from different tables or passages of the source.

Legend:
[1] = Pharmacokinetic evaluations in SD rats; format: in vivo; conditions: Sprague-Dawley, rat, plasma
Experimental: Experimental materials: the pharmacokinetic analyses were carried out by Shanghai Medicilon Corporation. Sprague-Dawley (SD) rats were provided by Shanghai Super-B&K Laboratory Animal Corp., Ltd.
The stock solution was orally administered to three SD rats at a dose of 25 mg/kg and administered to three SD rats through intravenous injection at a single dose of 5 mg/kg. Blood was collected from jugular veins before the oral administration and 0.25, 0.5, 1, 2, 4, 6, 8 and 24 hours after the oral administration. Blood was collected from jugular veins before the intravenous injection and 0.083, 0.25, 0.5, 1, 2, 4, 6, 8 and 24 hours after the intravenous injection. About 200 μL of the blood samples were collected into heparinized tubes and then immediately centrifuged at 8000 r/min for 6 minutes to obtain blood plasma. The obtained blood plasma was storaged at −80° C. until analysis.

[2] = test system: 22Rv1 xenograft; conditions: for TGI: five days a week for three weeks
Experimental: Experimental purpose: a xenograft mouse experiment was used for verifying inhibitory effects of the compounds of the present application on tumors in vivo.
Experimental methods: three-week-old male mice (strain: NOD/MrkBomTac-Prkdc^scid) were purchased from Beijing Vital River Laboratory Animal Technology Co., Ltd and used for xenograft tumor establishment. 22Rv1 tumor cells were subcutaneously inoculated on a side of a lower abdomen of each mouse, and each mouse was injected with 3×10^6 cells. […] When the tumor volumes reached about 100 mm^3, the mice were randomly divided into groups (n=6-7 per group) and then administered through oral gavage. […] The length (L) and width (W) of the tumor mass were measured by a caliper, and the volume was expressed in mm^3 and calculated according to the following formula: V=π/6×(L×W^2). TGI was calculated according to the following formula: TGI=[1−(T−T0)/(C−C0)]×100, where T denoted a mean tumor volume on a specific day of the experiment and T0 denoted a mean tumor volume at the beginning of the treatment; similarly, C and C0 denoted a mean tumor volume on a specific day of the experiment and a mean tumor volume of a blank group at the beginning of the treatment, respectively.
Data represented mean tumor volume standard deviation (n=6-7 per group) in each treatment group.

[3] = test system: C4-2B; assay: Cell viability (Cell-Titer GLO), C4-2B; conditions: read-out: Cell Viability IC50 C4-2B
Experimental: (§1) Experimental method: 20 μL of a medium containing 500 to 1000 cells to be detected (the actual number of cells was related to cell cycle and cell volume) was plated into each well of the 384-well clear-bottom microplate. […] An inhibition curve was fitted by GraphPad Prism software, and IC50 was calculated.

[4] = test system: LNCaP; assay: Cell viability (Cell-Titer GLO), LNCaP
Experimental: as §1

[5] = test system: 22Rv1; assay: Cell viability (Cell-Titer GLO), 22Rv1
Experimental: as §1

[6] = target: T1, RORγ (Homo sapiens, UniProt P51449); assay: luciferase dual reporter gene assay, Gal4-RORγLBD in 293T cells; conditions: IC50 (luciferase detection technique), RORγ transcriptional activity, Table 1
T1 sequence (P51449 269-508 limits assumed): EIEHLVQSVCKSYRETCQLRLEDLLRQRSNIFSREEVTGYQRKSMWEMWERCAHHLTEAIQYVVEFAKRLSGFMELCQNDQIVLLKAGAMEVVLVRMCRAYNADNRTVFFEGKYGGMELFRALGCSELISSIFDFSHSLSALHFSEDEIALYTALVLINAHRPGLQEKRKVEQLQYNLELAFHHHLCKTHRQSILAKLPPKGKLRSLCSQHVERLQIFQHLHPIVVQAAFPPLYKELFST
Experimental: On the day before transfection, cells were prepared in the 96-well plate with a cell density of 1.5×10^4 cells/well. After 24 hours of adherent growth, transient transfection was performed with the transfection reagent Lipo-fectamine 2000 through a method of dual reporter gene co-transfection. The transfection reagent and the plasmids were separately diluted with the Opti-MEM Reagent. Gal4-RORγLBD (25 ng), pG5-luc genes (25 ng) and Renilla (5 ng) were added to each well, and after 24 hours of co-transfection, compounds having different concentrations were added. After 24 hours of incubation, the luciferase dual reporter gene detection assay kit was used for detecting luminescence signals. Three duplicate wells were set for each sample, and IC50 values (half maximal inhibitory concentrations) were calculated by software.

[7] = target: T2, hRORγ (Homo sapiens, UniProt P51449); assay: protein thermal stability shift assay (TSA); conditions: read-out: ΔTm (TSA detection technique), hRORγ 10 μM, compound 200 μM
T2 sequence (P51449 1-518): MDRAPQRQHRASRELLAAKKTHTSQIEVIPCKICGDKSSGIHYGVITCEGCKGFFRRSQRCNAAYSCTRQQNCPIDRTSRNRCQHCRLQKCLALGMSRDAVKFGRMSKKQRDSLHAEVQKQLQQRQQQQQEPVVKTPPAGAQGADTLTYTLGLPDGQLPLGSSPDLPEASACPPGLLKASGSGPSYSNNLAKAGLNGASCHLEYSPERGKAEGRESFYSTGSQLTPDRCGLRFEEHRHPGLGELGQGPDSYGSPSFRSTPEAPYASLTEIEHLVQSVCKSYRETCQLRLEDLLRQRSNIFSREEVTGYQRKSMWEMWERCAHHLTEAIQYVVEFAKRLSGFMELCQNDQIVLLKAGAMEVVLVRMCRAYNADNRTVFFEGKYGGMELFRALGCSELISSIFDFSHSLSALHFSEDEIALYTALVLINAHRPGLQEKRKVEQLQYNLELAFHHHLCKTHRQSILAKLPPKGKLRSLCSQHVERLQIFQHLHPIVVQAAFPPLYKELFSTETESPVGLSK

[8] = target: T3, RORβ (Homo sapiens, UniProt Q92753); assay: Gal4-LBD luciferase selectivity test, RORβ
T3 sequence (Q92753 222-460 limits assumed): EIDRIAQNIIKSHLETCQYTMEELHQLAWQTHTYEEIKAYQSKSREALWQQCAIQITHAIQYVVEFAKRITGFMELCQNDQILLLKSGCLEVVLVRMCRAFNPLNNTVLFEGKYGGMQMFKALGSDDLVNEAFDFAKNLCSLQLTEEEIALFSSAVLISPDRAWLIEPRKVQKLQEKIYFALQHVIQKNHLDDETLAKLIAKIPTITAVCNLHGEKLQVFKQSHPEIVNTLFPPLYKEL
Experimental: (§2) On the day before transfection, cells were prepared in the 96-well plate with a cell density of 1.5×10^4 cells/well. After 24 hours of adherent growth, transient transfection was performed with the transfection reagent Lipo-fectamine 2000 through a method of dual reporter gene co-transfection. The transfection reagent and the plasmids were separately diluted with the Opti-MEM Reagent. […] After 24 hours of incubation, the luciferase dual reporter gene detection assay kit was used for detecting luminescence signals. Three duplicate wells were set for each sample, and IC50 values (half maximal inhibitory concentrations) were calculated by software.

[9] = target: T4, FXR (Homo sapiens, UniProt Q96RI1); assay: Gal4-LBD luciferase selectivity test, FXR
T4 sequence (Q96RI1 262-486 limits assumed): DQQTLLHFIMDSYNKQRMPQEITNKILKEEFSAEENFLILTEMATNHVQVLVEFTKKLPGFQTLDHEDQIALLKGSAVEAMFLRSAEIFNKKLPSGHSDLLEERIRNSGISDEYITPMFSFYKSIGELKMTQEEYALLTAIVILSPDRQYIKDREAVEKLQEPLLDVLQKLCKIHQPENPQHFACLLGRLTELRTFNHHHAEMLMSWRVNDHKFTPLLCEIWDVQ
Experimental: as §2

[10] = target: T5, LXRα (Homo sapiens, UniProt Q13133); assay: Gal4-LBD luciferase selectivity test, LXRα
T5 sequence (Q13133 209-447 limits assumed): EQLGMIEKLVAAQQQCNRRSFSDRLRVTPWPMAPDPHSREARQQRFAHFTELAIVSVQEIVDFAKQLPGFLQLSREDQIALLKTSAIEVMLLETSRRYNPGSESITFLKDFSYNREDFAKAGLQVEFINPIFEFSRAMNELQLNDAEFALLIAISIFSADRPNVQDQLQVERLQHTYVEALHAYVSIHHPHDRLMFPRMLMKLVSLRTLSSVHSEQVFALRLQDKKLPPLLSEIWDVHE
Experimental: as §2

[11] = target: T6, RORα (Homo sapiens, UniProt P35398); assay: Gal4-LBD luciferase selectivity test, RORα
T6 sequence (P35398 272-510 limits assumed): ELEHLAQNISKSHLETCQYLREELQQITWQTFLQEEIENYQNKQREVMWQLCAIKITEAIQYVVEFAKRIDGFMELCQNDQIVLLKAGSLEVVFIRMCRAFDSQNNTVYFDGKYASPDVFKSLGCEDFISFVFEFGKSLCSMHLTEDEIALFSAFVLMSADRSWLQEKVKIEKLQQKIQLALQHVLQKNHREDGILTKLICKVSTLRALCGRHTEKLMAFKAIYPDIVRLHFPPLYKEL
Experimental: as §2

CCS(=O)(=O)c1ccc(CC(=O)Nc2ccc(-c3nc4ccc(C(F)(F)F)cc4n3[C@H](C)c3ccc(F)cc3)cc2)cc1 [Example 67, (R)-2-(4-(ethylsulfonyl)phenyl)-N-(4-(1-(1-(4-fluorophenyl)ethyl)-6-(trifluoromethyl)-1H-benzo[d]imidazol-2-yl)phenyl)acetamide]
Cmax ([1]; iv (5 mg/kg)): 18400 ng/mL

CCS(=O)(=O)c1ccc(CC(=O)Nc2ccc(-c3nc4ccc(C(F)(F)F)cc4n3[C@@H](C)c3ccc(F)cc3)cc2)cc1 [Example 68, (S)-2-(4-(ethylsulfonyl)phenyl)-N-(4-(1-(1-(4-fluorophenyl)ethyl)-6-(trifluoromethyl)-1H-benzo[d]imidazol-2-yl)phenyl)acetamide]
Cmax ([1]; iv (5 mg/kg)): 14800 ng/mL
Cmax ([1]; po (25 mg/kg)): 5730 ng/mL
TGI ([2]; 10 mg/kg oral): 83%
TGI ([2]; 40 mg/kg oral): 109%
toxic effect ([2]; 22Rv1 mouse xenograft models, all doses): without any apparent toxic effect
variations of weights of mice during administration ([2]; all doses (10 and 40 mg/kg oral)): no apparent variations in weight

OC(c1ccc(-c2ccc(CN3CCN(Cc4ccncc4)CC3)cc2)c(F)c1)(C(F)(F)F)C(F)(F)F [SR2211, reference compound]
IC50 ([3]; C4-2B, 72-96 h): 5.38 ± 0.27 µM
IC50 ([4]; read-out: Cell Viability IC50 LNCaP, 72-96 h): 6.14 ± 0.04 µM
IC50 ([5]; read-out: Cell Viability IC50 22Rv1, 22Rv1, 72-96 h): 13.3 ± 1.22 µM

CCS(=O)(=O)c1ccc(CC(=O)Nc2ccc(-c3nc4ccc(OC)cc4s3)cc2)cc1 [Example 31, 2-(4-(ethylsulfonyl)phenyl)-N-(4-(6-methoxybenzo[d]thiazol-2-yl)phenyl) acetamide]
IC50 [6]: 10 to 100 µM
ΔTm at 200 µM [7]: 5 to 10 °C

CCCCCCC(=O)Nc1ccc(-c2nc3ccc(C)cc3s2)cc1 [Example 26, N-(4-(6-methylbenzo[d]thiazol-2-yl)phenyl)heptanamide]
IC50 [6]: < 0.1 µM
ΔTm at 200 µM [7]: > 10 °C

Cc1ccc2nc(-c3ccc(NS(=O)(=O)Cc4cccc(N)c4)cc3)sc2c1 [Example 24, 1-(3-aminophenyl)-N-(4-(6-methylbenzo[d]thiazol-2-yl)phenyl)methane sulfonamide]
IC50 [6]: 10 to 100 µM
ΔTm at 200 µM [7]: > 10 °C

CCS(=O)(=O)c1ccc(C(NC(C)=O)C(=O)Nc2ccc(-c3nc4ccc(C)cc4n3[C@@H](C)c3ccc(C)cc3)cc2)cc1 (single isomer, unassigned) [Example 74]
IC50 [6]: < 0.1 µM
IC50 [8]: > 20 µM
IC50 [3]: 4.19 ± 0.34 µM
ΔTm at 200 µM [7]: < 5 °C
IC50 [9]: > 20 µM
IC50 ([4]; Homo sapiens, read-out: Cell Viability IC50 LNCaP): 5.2 ± 0.14 µM
IC50 ([5]; Homo sapiens, 22Rv1, read-out: Cell Viability IC50 22Rv1): 10.4 ± 1.01 µM
IC50 [10]: > 20 µM
IC50 [11]: > 20 µM
